Key:
Bovine serum albumin = Bovine serum albumin (Bos taurus, UniProt P02769); assay: HP-1 deacetylation and protein binding assay (gel filtration, fluorescence)
Description: Solutions containing HP-1 (20 μM) in 30 μL HDAC buffer with 5% DMSO were incubated at 37° C. for four hours in the presence or absence of HDAC3 (3.6 μM). After incubation with HDAC3, NaCNBH3 (1.4 mM) or vehicle (H2O) and BSA (6 mg/mL) or vehicle (HDAC buffer), were added to the solutions prior to an additional incubation at 37° C. for two hours (all reactions were run in triplicate). Following the second incubation, the final solutions (50 μL) were added to G-25 columns (GE Healthcare, Buckinghamshire, UK) pre-equilibrated with milliQ water. The columns were then centrifuged at 700×g for 60 seconds before addition of milliQ water (50 μL). […] 75 μL of each fraction was transferred to a well in a 96-well, black, clear-bottom plate (Corning Incorporated, Corning, N.Y.) and the fluorescence was detected using an IVIS Spectrum (Caliper, Hopkinton, Mass.). To obtain the fluorescence signals, the 465 nm excitation filter, 530 nm emission filter, and a 5 second exposure were used. For analysis, the total photon flux over the area of each well was determined.
HP-1 deacetylation and protein binding assay. […] The fractions were transferred to a well in a 96-well, black, clear-bottom plate (Corning Incorporated, Corning, N.Y.) and the fluorescence was detected using an IVIS Spectrum (Caliper, Hopkinton, Mass.). […]

[1] = Stability of the enamide in HDAC buffer at pH 2-12 (HPLC/LCMS); format: physicochemical; conditions: HDAC assay buffer, room temperature, 20 μM
Description: HDAC buffer was adjusted to pH 2, 4, 6, 7, 8, 10 or 12 with […]. Compound 9 was dissolved in HDAC buffer at each pH to obtain 200 μL of a 20 μM solution. The solutions were kept at room temperature and 10 μL aliquots were analyzed at selected time points (t=0, 5, 10, 15, 30 and 60 minutes). Experiments were carried out in duplicate and the hydrolysis was monitored by HPLC and LCMS. HPLC measurements were made using a gradient elution system composed of water and acetonitrile with 0.01% ammonium formate at a flow rate of 1 mL/min on an Agilent Eclipse XDB-C18 chromatographic column (4.6 mm×150 mm). LCMS was performed with a gradient elution system composed of water and acetonitrile with 0.1% ammonium formate at a flow rate of 0.1 mL/min using an Agilent Eclipse XDB-C8 chromatographic column (5 μm particle size, 2.1 mm×150 mm).

Sequence of Bovine serum albumin (P02769 25-607): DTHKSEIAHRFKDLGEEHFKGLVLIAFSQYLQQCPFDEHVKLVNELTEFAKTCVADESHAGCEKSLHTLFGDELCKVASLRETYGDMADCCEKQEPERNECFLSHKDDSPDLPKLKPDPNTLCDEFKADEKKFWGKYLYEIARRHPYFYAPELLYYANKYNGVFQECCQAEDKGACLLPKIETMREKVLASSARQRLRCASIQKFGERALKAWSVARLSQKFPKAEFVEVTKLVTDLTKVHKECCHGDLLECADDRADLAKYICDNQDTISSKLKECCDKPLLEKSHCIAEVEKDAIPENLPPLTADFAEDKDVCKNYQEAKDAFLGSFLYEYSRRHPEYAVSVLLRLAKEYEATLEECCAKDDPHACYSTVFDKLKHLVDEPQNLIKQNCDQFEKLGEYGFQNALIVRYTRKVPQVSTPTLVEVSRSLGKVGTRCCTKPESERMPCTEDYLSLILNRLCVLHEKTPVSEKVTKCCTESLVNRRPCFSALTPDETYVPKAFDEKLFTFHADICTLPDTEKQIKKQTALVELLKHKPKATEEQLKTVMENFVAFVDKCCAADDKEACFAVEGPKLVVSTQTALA

| Compound | increase in protein-DHP-1 binding compared to controls (Bovine serum albumin; HP-1 (20 μM) incubated with HDAC3, then BSA with NaCNBH3 (Lanes F and H)) [fold] | increase in detected protein-DHP-1 binding relative to controls (Bovine serum albumin; HP-1 (20 μM) incubated with HDAC3, then BSA, no NaCNBH3 (lanes E and G)) [fold] | conversion of the enamide to the aldehyde ([1]; pH 2, 60 min) | conversion of the enamide to the aldehyde ([1]; pH 4-12, 60 min) |
| --- | --- | --- | --- | --- |
| O=CCCCCCNC(=O)CCCCCNc1ccc([N+](=O)[O-])c2nonc12 [DHP-1] | 5 | 2 | – | – |
| CC(=O)NC=CCCCCNC(=O)c1ccccc1 [Compound 9] | – | – | full conversion | no detectable conversion |

From patent publication US20160138077A1, “MONITORING AND ASSESSING DEACETYLASE ENZYME ACTIVITY” (THE GENERAL HOSPITAL CORPORATION, priority 2013, published 2016)
